Reference: PubChem BioAssay AID206 (DTP/NCI, 2004)
“And” between values parts separate entries of the source, which are not always exact repeats. Equal values may be shown once. Results filed as inconclusive are left out.

Test system: nude mice, HT29 intrarenal xenograft, tumor weight T/C
Test: NCI In Vivo Anticancer Drug Screen. Data for tumor model HT29;CX-1 Human Adenocarcinoma (MER+) (intrarenal inoculation) in NU/NU Swiss (nude) mice
Conditions: endpoint: mean tumor weight change, higher = larger tumour
Procedure: The antitumor activity of compounds was measured in mice bearing transplantable tumors. Survival or tumor size were measured and the results are expressed as the measurement made in the treated group (T) divided by the measurement made in the vehicle treated control group (C). The tumor model used in this assay is HT29;CX-1 Human Adenocarcinoma (MER+) (intrarenal inoculation) in NU/NU Swiss (nude) mice

[1] = dose: 50.0 mg/kg/injection, schedule: Q04DX004 (sc), vehicle: saline with Tween-80
[2] = dose: 100.0 mg/kg/injection, schedule: Q04DX004 (sc), vehicle: saline with Tween-80
[3] = dose: 200.0 mg/kg/injection, schedule: Q04DX004 (sc), vehicle: saline with Tween-80
[4] = dose: 25.0 mg/kg/injection, schedule: Q04DX004 (sc), vehicle: saline with Tween-80

Which results are given for COc1cc(OC)c(OC)cc1/C=C\c1ccnc2ccccc12?
T/C (dose: 225.0 mg/kg/injection, schedule: Q04DX004 (sc), vehicle: Klucel (hydroxypropylcellulose) (HPC)): 79 % of control; T/C (dose: 450.0 mg/kg/injection, schedule: Q04DX004 (sc), vehicle: Klucel (hydroxypropylcellulose) (HPC)): 110 % of control; T/C (dose: 900.0 mg/kg/injection, schedule: Q04DX004 (sc), vehicle: Klucel (hydroxypropylcellulose) (HPC)): 83 % of control; T/C (dose: 1800.0 mg/kg/injection, schedule: Q04DX004 (sc), vehicle: Klucel (hydroxypropylcellulose) (HPC)): 67 % of control

With Nc1cc2c3c(cccc3c1)C(=O)N(CCN1CCCC1)C2=O as the molecule, how does the T/C [1] read?
The T/C was 170 % of control.

What about the T/C [2] of the same molecule?
The T/C was 202 % of control.

What about the T/C [3] of the same molecule?
Its T/C is 233 % of control.

What about the T/C (dose: 400.0 mg/kg/injection, schedule: Q04DX004 (sc), vehicle: saline with Tween-80) of the same molecule?
Its T/C is 177 % of control.

How did the T/C (dose: 50.0 mg/kg/injection, schedule: Q04DX004 (sc), vehicle: Klucel (hydroxypropylcellulose) (HPC)) turn out when O=C(O)/C=C/C(=O)Nc1ccc(Cl)c(Cl)c1 was run?
Its T/C is 151 % of control.

What about the T/C (dose: 100.0 mg/kg/injection, schedule: Q04DX004 (sc), vehicle: Klucel (hydroxypropylcellulose) (HPC)) of the same molecule?
The T/C was 102 % of control.

And the T/C (dose: 200.0 mg/kg/injection, schedule: Q04DX004 (sc), vehicle: Klucel (hydroxypropylcellulose) (HPC))?
Its T/C is 91 % of control.

Which results are given for NC(=O)/C=C/c1c[nH]c2nccnc12?
T/C (dose: 25.0 mg/kg/injection, schedule: Q04DX004 (sc), vehicle: water): 114 % of control; T/C (dose: 50.0 mg/kg/injection, schedule: Q04DX004 (sc), vehicle: water): 64 % of control; T/C (dose: 100.0 mg/kg/injection, schedule: Q04DX004 (sc), vehicle: water): 86 % of control; T/C (dose: 200.0 mg/kg/injection, schedule: Q04DX004 (sc), vehicle: water): 102 % of control

For Cc1cc(SCC(=O)c2ccc(Br)cc2)cc(C)[o+]1, which T/C (dose: 100.0 mg/kg/injection, schedule: Q01DX010 (sc), vehicle: saline) is on record?
Its T/C is 41 % of control.

And the T/C (dose: 200.0 mg/kg/injection, schedule: Q01DX010 (sc), vehicle: saline)?
The T/C was 76 % of control.

Which T/C (dose: 12.5 mg/kg/injection, schedule: Q04DX004 (sc), vehicle: saline with Tween-80) does the source give for C[n+]1cccc(NC(=O)c2ccc(NC(=O)C34CCC(C(=O)Nc5ccc(C(=O)Nc6ccc[n+](C)c6)cc5)(CC3)CC4)cc2)c1 here?
Its T/C is 118 % of control.

And the T/C [4]?
Its T/C is 47 % of control.

What about the T/C [1] of the same molecule?
Its T/C is 7 % of control and 21 % of control.

How did the T/C (dose: 9.38 mg/kg/injection, schedule: Q04DX004 (sc), vehicle: saline with Tween-80) turn out when Nc1nc(N)c2c(Cl)c(CNc3ccc(Cl)c(Cl)c3)ccc2n1 was run?
Its T/C is 85 % of control.

And the T/C (dose: 18.75 mg/kg/injection, schedule: Q04DX004 (sc), vehicle: saline with Tween-80)?
Its T/C is 60 % of control.

And the T/C (dose: 37.5 mg/kg/injection, schedule: Q04DX004 (sc), vehicle: saline with Tween-80)?
The T/C was 89 % of control and 94 % of control.

What about the T/C (dose: 75.0 mg/kg/injection, schedule: Q04DX004 (sc), vehicle: saline with Tween-80) of the same molecule?
Its T/C is 91 % of control and 97 % of control.

And the T/C (dose: 150.0 mg/kg/injection, schedule: Q04DX004 (sc), vehicle: saline with Tween-80)?
The T/C was 113 % of control.

What about the T/C (dose: 300.0 mg/kg/injection, schedule: Q04DX004 (sc), vehicle: saline with Tween-80) of the same molecule?
Its T/C is 64 % of control.

For CN=C(N)N/N=C(\C)c1ccc2c(c1)Cc1cc(/C(C)=N/NC(N)=NC)ccc1-2, which T/C [4] is on record?
The T/C was 102 % of control.

What about the T/C [1] of the same molecule?
The T/C was 53 % of control.

What about the T/C [2] of the same molecule?
The T/C was 105 % of control.

And the T/C [3]?
Its T/C is 50 % of control.

How did the T/C (dose: 3.13 mg/kg/injection, schedule: Q01DX010 (sc), vehicle: Klucel (hydroxypropylcellulose) (HPC)) turn out when Cc1ccc2c(c1)C(=O)N(CC[P+](c1ccccc1)(c1ccccc1)c1ccccc1)C2=O was run?
The T/C was 70 % of control.

And the T/C (dose: 6.25 mg/kg/injection, schedule: Q01DX010 (sc), vehicle: Klucel (hydroxypropylcellulose) (HPC))?
Its T/C is 37 % of control.

What about the T/C (dose: 12.5 mg/kg/injection, schedule: Q01DX010 (sc), vehicle: Klucel (hydroxypropylcellulose) (HPC)) of the same molecule?
Its T/C is 86 % of control.

What about the T/C (dose: 25.0 mg/kg/injection, schedule: Q01DX010 (sc), vehicle: Klucel (hydroxypropylcellulose) (HPC)) of the same molecule?
Its T/C is 75 % of control.

For CCS/C(SC)=C(/c1ccccc1)[P+](c1ccccc1)(c1ccccc1)c1ccccc1, which T/C (dose: 18.75 mg/kg/injection, schedule: Q04DX004 (sc), vehicle: Klucel (hydroxypropylcellulose) (HPC)) is on record?
Its T/C is 93 % of control.
